Data as given in ChEMBL document CHEMBL6078713, “Synthesis and mechanistic studies of 4-aminoquinoline-Isatin molecular hybrids and Schiff's bases as promising antimicrobial agents” (Eur J Med Chem, 2025).
In brackets after ≈: the same amount, converted by molar mass. Activity calls are given as the source filed them. The calls are words filed in the database; no cut-off is given here.

Experiments:
Escherichia coli [1] = assay: Antibacterial activity against Escherichia coli MTCC 443 assessed as diameter of zone of inhibition at 500 ug/ml by agar disk diffusion method; type: functional; conditions: read-out: DIZ
Enterococcus faecalis [2] = assay: Antibacterial activity against Enterococcus faecalis MTCC 439 assessed as diameter of zone of inhibition at 500 ug/ml by agar disk diffusion method; type: functional; conditions: read-out: DIZ
Staphylococcus aureus [3] = assay: Antibacterial activity against Staphylococcus aureus MTCC 902 assessed as diameter of zone of inhibition at 500 ug/ml by agar disk diffusion method; type: functional; conditions: read-out: DIZ
Pseudomonas aeruginosa [4] = assay: Antibacterial activity against Pseudomonas aeruginosa MTCC 2453 assessed as diameter of zone of inhibition at 500 ug/ml by agar disk diffusion method; type: functional; conditions: read-out: DIZ
Escherichia coli [5] = assay: Antibacterial activity against Escherichia coli MTCC 443 assessed as inhibition of bacterial growth incubated overnight by serial dilution based spectrophotometer; type: functional
Enterococcus faecalis [6] = assay: Antibacterial activity against Enterococcus faecalis MTCC 439 assessed as inhibition of bacterial growth incubated overnight by serial dilution based spectrophotometer; type: functional
Bacillus subtilis [7] = assay: Antibacterial activity against Bacillus subtilis MTCC 736 assessed as inhibition of bacterial growth incubated overnight by serial dilution based spectrophotometer; type: functional
Staphylococcus aureus [8] = assay: Antibacterial activity against Staphylococcus aureus MTCC 902 assessed as inhibition of bacterial growth incubated overnight by serial dilution based spectrophotometer; type: functional
Pseudomonas aeruginosa [9] = assay: Antibacterial activity against Pseudomonas aeruginosa MTCC 2453 assessed as inhibition of bacterial growth incubated overnight by serial dilution based spectrophotometer; type: functional
Salmonella typhi [10] = assay: Antibacterial activity against Salmonella typhi assessed as inhibition of bacterial growth incubated overnight by serial dilution based spectrophotometer; type: functional, Salmonella enterica subsp. enterica serovar Typhi; conditions: Salmonella enterica
Escherichia coli [11] = assay: Bactericidal activity against Escherichia coli MTCC 443 assessed as inhibition of bacterial growth incubated overnight; type: functional
Enterococcus faecalis [12] = assay: Bactericidal activity against Enterococcus faecalis MTCC 439 assessed as inhibition of bacterial growth incubated overnight; type: functional
Staphylococcus aureus [13] = assay: Bactericidal activity against Staphylococcus aureus MTCC 902 assessed as inhibition of bacterial growth incubated overnight; type: functional
Pseudomonas aeruginosa [14] = assay: Bactericidal activity against Pseudomonas aeruginosa MTCC 2453 assessed as inhibition of bacterial growth incubated overnight; type: functional
Enterococcus faecalis [15] = assay: Ratio of MBC for antibacterial activity against Enterococcus faecalis MTCC 439 to MIC for bactericidal activity against Enterococcus faecalis MTCC 439; type: functional
Staphylococcus aureus [16] = assay: Ratio of MBC for antibacterial activity against Staphylococcus aureus MTCC 902 to MIC for bactericidal activity against Staphylococcus aureus MTCC 902; type: functional
Pseudomonas aeruginosa [17] = assay: Ratio of MBC for antibacterial activity against Pseudomonas aeruginosa MTCC 2453 to MIC for bactericidal activity against Pseudomonas aeruginosa MTCC 2453; type: functional
Escherichia coli [18] = assay: Antibacterial activity against Escherichia coli MTCC 443 assessed as diameter of zone of inhibition at 0.5 times MIC incubated overnight by disk diffusion method; type: functional
Enterococcus faecalis [19] = assay: Antibacterial activity against Enterococcus faecalis MTCC 439 assessed as diameter of zone of inhibition at 0.5 times MIC incubated overnight by disk diffusion method; type: functional
Staphylococcus aureus [20] = assay: Antibacterial activity against Staphylococcus aureus MTCC 902 assessed as diameter of zone of inhibition at 0.5 times MIC incubated overnight by disk diffusion method; type: functional
Pseudomonas aeruginosa [21] = assay: Antibacterial activity against Pseudomonas aeruginosa MTCC 2453 assessed as diameter of zone of inhibition at 0.5 times MIC incubated overnight by disk diffusion method; type: functional
Salmonella typhi [22] = assay: Antibacterial activity against Salmonella typhi assessed as diameter of zone of inhibition at 0.5 times MIC incubated overnight by disk diffusion method; type: functional, Salmonella enterica subsp. enterica serovar Typhi
Escherichia coli [23] = assay: Antibacterial activity against Escherichia coli MTCC 443 assessed as diameter of zone of inhibition at MIC incubated overnight by disk diffusion method; type: functional
Enterococcus faecalis [24] = assay: Antibacterial activity against Enterococcus faecalis MTCC 439 assessed as diameter of zone of inhibition at MIC incubated overnight by disk diffusion method; type: functional
Bacillus subtilis [25] = assay: Antibacterial activity against Bacillus subtilis MTCC 736 assessed as diameter of zone of inhibition at MIC incubated overnight by disk diffusion method; type: functional
Staphylococcus aureus [26] = assay: Antibacterial activity against Staphylococcus aureus MTCC 902 assessed as diameter of zone of inhibition at MIC incubated overnight by disk diffusion method; type: functional
Pseudomonas aeruginosa [27] = assay: Antibacterial activity against Pseudomonas aeruginosa MTCC 2453 assessed as diameter of zone of inhibition at MIC incubated overnight by disk diffusion method; type: functional
Salmonella typhi [28] = assay: Antibacterial activity against Salmonella typhi assessed as diameter of zone of inhibition at MIC incubated overnight by disk diffusion method; type: functional, Salmonella enterica subsp. enterica serovar Typhi
Escherichia coli [29] = assay: Antibacterial activity against Escherichia coli MTCC 443 assessed as diameter of zone of inhibition at 2 times MIC incubated overnight by disk diffusion method; type: functional
Enterococcus faecalis [30] = assay: Antibacterial activity against Enterococcus faecalis MTCC 439 assessed as diameter of zone of inhibition at 2 times MIC incubated overnight by disk diffusion method; type: functional
Bacillus subtilis [31] = assay: Antibacterial activity against Bacillus subtilis MTCC 736 assessed as diameter of zone of inhibition at 2 times MIC incubated overnight by disk diffusion method; type: functional
Staphylococcus aureus [32] = assay: Antibacterial activity against Staphylococcus aureus MTCC 902 assessed as diameter of zone of inhibition at 2 times MIC incubated overnight by disk diffusion method; type: functional
Pseudomonas aeruginosa [33] = assay: Antibacterial activity against Pseudomonas aeruginosa MTCC 2453 assessed as diameter of zone of inhibition at 2 times MIC incubated overnight by disk diffusion method; type: functional
Salmonella typhi [34] = assay: Antibacterial activity against Salmonella typhi assessed as diameter of zone of inhibition at 2 times MIC incubated overnight by disk diffusion method; type: functional, Salmonella enterica subsp. enterica serovar Typhi
Escherichia coli [35] = assay: Synergistic antibacterial activity against Escherichia coli MTCC 443 assessed as inhibition of bacterial growth incubated overnight in presence of ciprofloxacin by serial dilution based spectrophotometer; type: functional
Enterococcus faecalis [36] = assay: Synergistic antibacterial activity against Enterococcus faecalis MTCC 439 assessed as inhibition of bacterial growth incubated overnight in presence of ciprofloxacin by serial dilution based spectrophotometer; type: functional
Staphylococcus aureus [37] = assay: Synergistic antibacterial activity against Staphylococcus aureus MTCC 902 assessed as inhibition of bacterial growth incubated overnight in presence of ciprofloxacin by serial dilution based spectrophotometer; type: functional
Pseudomonas aeruginosa [38] = assay: Synergistic antibacterial activity against Pseudomonas aeruginosa MTCC 2453 assessed as inhibition of bacterial growth incubated overnight in presence of ciprofloxacin by serial dilution based spectrophotometer; type: functional
Escherichia coli [39] = assay: Synergistic antibacterial activity against Escherichia coli MTCC 443 assessed as fractional inhibitory concentration index incubated overnight in presence of ciprofloxacin by microdilution checkerboard assay; type: functional
Enterococcus faecalis [40] = assay: Synergistic antibacterial activity against Enterococcus faecalis MTCC 439 assessed as fractional inhibitory concentration index incubated overnight in presence of ciprofloxacin by microdilution checkerboard assay; type: functional
Staphylococcus aureus [41] = assay: Synergistic antibacterial activity against Staphylococcus aureus MTCC 902 assessed as fractional inhibitory concentration index incubated overnight in presence of ciprofloxacin by microdilution checkerboard assay; type: functional
Pseudomonas aeruginosa [42] = assay: Synergistic antibacterial activity against Pseudomonas aeruginosa MTCC 2453 assessed as fractional inhibitory concentration index incubated overnight in presence of ciprofloxacin by microdilution checkerboard assay; type: functional
Pseudomonas aeruginosa [43] = assay: Antibacterial activity against Pseudomonas aeruginosa MTCC 2453 assessed as inhibition of bacterial growth incubated overnight by spectrophotometry relative to control; type: functional
Enterococcus faecalis [44] = assay: Antibacterial activity against Enterococcus faecalis MTCC 439 assessed as inhibition of bacterial growth incubated overnight by spectrophotometry relative to control; type: functional
Bacillus subtilis [45] = assay: Antibacterial activity against Bacillus subtilis MTCC 736 assessed as inhibition of bacterial growth incubated overnight by spectrophotometry relative to control; type: functional
Staphylococcus aureus [46] = assay: Antibacterial activity against Staphylococcus aureus MTCC 902 assessed as inhibition of bacterial growth incubated overnight by spectrophotometry relative to control; type: functional
Staphylococcus aureus [47] = assay: Bacteriostatic activity against Staphylococcus aureus MTCC 902 assessed as reduction in bacterial growth at 2 times MIC measured upto 24 hrs by absorbance based assay; type: functional, organism-based
Escherichia coli [48] = assay: Bacteriostatic activity against Escherichia coli MTCC 443 assessed as reduction in bacterial growth at 2 times MIC measured upto 10 hrs by absorbance based assay; type: functional, organism-based
Staphylococcus aureus [49] = assay: Bacteriostatic activity against Staphylococcus aureus MTCC 902 assessed as reduction in bacterial growth at 2 times MIC measured upto 10 hrs by absorbance based assay; type: functional, organism-based
Escherichia coli [50] = assay: Bacteriostatic activity against Escherichia coli MTCC 443 assessed as reduction in log phase of bacterial growth at 0.5 to 1 times MIC measured upto 24 hrs by absorbance based assay; type: functional, organism-based
Staphylococcus aureus [51] = assay: Bacteriostatic activity against Staphylococcus aureus MTCC 902 assessed as reduction in bacterial growth at 0.5 to 1 times MIC measured upto 24 hrs by absorbance based assay; type: functional, organism-based

SMILES: O=C1Nc2ccc(Cl)cc2/C1=N/CCNc1ccnc2cc(Cl)ccc12
- zone of inhibition at 500 µg/mL (Escherichia coli [1]): 11 mm
- zone of inhibition at 500 µg/mL (Enterococcus faecalis [2]): 8 mm
- zone of inhibition at 500 µg/mL (Staphylococcus aureus [3]): 10 mm
- zone of inhibition at 500 µg/mL (Pseudomonas aeruginosa [4]): 12 mm
- MIC (Escherichia coli [5]): 256 µg/mL (≈ 664 µM)
- MIC (Enterococcus faecalis [6]): 512 µg/mL (≈ 1330 µM)
- MIC (Bacillus subtilis [7]): > 512 µg/mL
- MIC (Staphylococcus aureus [8]): 256 µg/mL (≈ 664 µM)
- MIC (Pseudomonas aeruginosa [9]): 128 µg/mL (≈ 332 µM)
- MIC (Salmonella typhi [10]): > 512 µg/mL
- MBC (Escherichia coli [11]): > 512 µg/mL
- MBC (Enterococcus faecalis [12]): 512 µg/mL (≈ 1330 µM)
- MBC (Staphylococcus aureus [13]): 256 µg/mL (≈ 664 µM)
- MBC (Pseudomonas aeruginosa [14]): 128 µg/mL (≈ 332 µM)
- Ratio (Enterococcus faecalis [15]): 1
- Ratio (Staphylococcus aureus [16]): 1
- Ratio (Pseudomonas aeruginosa [17]): 1
- diameter of the inhibition zone (DIZ) (Escherichia coli [18]): 11 mm
- diameter of the inhibition zone (DIZ) (Enterococcus faecalis [19]): 12 mm
- diameter of the inhibition zone (DIZ) (Staphylococcus aureus [20]): 13 mm
- diameter of the inhibition zone (DIZ) (Pseudomonas aeruginosa [21]): 13 mm
- diameter of the inhibition zone (DIZ) (Salmonella typhi [22]): 13 mm
- diameter of the inhibition zone (DIZ) (Escherichia coli [23]): 12 mm
- diameter of the inhibition zone (DIZ) (Enterococcus faecalis [24]): 17 mm
- diameter of the inhibition zone (DIZ) (Bacillus subtilis [25]): 6 mm
- diameter of the inhibition zone (DIZ) (Staphylococcus aureus [26]): 15 mm
- diameter of the inhibition zone (DIZ) (Pseudomonas aeruginosa [27]): 18 mm
- diameter of the inhibition zone (DIZ) (Salmonella typhi [28]): 10 mm
- diameter of the inhibition zone (DIZ) (Escherichia coli [29]): 11 mm
- diameter of the inhibition zone (DIZ) (Enterococcus faecalis [30]): 19 mm
- diameter of the inhibition zone (DIZ) (Bacillus subtilis [31]): 8 mm
- diameter of the inhibition zone (DIZ) (Staphylococcus aureus [32]): 16 mm
- diameter of the inhibition zone (DIZ) (Pseudomonas aeruginosa [33]): 20 mm
- diameter of the inhibition zone (DIZ) (Salmonella typhi [34]): 11 mm
- MIC (Escherichia coli [35]): 32 µg/mL
- MIC (Enterococcus faecalis [36]): 64 µg/mL
- MIC (Staphylococcus aureus [37]): 64 µg/mL
- MIC (Pseudomonas aeruginosa [38]): 8 µg/mL
- fractional inhibitory concentration index (FICI) (Escherichia coli [39]): 0.249
- fractional inhibitory concentration index (FICI) (Enterococcus faecalis [40]): 1.125
- fractional inhibitory concentration index (FICI) (Staphylococcus aureus [41]): 1.25
- fractional inhibitory concentration index (FICI) (Pseudomonas aeruginosa [42]): 1.062
- inhibition (INH) (Pseudomonas aeruginosa [43]): >80%
- inhibition (INH) (Enterococcus faecalis [44]): >80%
- inhibition (INH) (Bacillus subtilis [45]): >80%
- inhibition (INH) (Staphylococcus aureus [46]): >80%
- Activity (Staphylococcus aureus [47]): inactive
- Activity (Escherichia coli [48]): Active
- Activity (Staphylococcus aureus [49]): Active
- Activity (Escherichia coli [50]): Active
- Activity (Staphylococcus aureus [51]): inactive
